In paper PMC9309644, “Functional analysis of thermo-sensitive TRPV1 in an aquatic vertebrate, masu salmon (Oncorhynchus masou ishikawae)” (Biochemistry and Biophysics Reports, 2022):

Molecular target: T1, OmTRPV1 (Oncorhynchus masou, UniProt Z9PIN9CDR2)
T1 construct: cDNA cloned from spinal cord into pOX(+) via EcoRI/NotI; forward primer starts at ATG, reverse primer with stop codon; cRNA-injected Xenopus laevis oocytes; S487 and V525 correspond to mammalian S512 and T550
T1 sequence (Z9PIN9CDR2 1-804): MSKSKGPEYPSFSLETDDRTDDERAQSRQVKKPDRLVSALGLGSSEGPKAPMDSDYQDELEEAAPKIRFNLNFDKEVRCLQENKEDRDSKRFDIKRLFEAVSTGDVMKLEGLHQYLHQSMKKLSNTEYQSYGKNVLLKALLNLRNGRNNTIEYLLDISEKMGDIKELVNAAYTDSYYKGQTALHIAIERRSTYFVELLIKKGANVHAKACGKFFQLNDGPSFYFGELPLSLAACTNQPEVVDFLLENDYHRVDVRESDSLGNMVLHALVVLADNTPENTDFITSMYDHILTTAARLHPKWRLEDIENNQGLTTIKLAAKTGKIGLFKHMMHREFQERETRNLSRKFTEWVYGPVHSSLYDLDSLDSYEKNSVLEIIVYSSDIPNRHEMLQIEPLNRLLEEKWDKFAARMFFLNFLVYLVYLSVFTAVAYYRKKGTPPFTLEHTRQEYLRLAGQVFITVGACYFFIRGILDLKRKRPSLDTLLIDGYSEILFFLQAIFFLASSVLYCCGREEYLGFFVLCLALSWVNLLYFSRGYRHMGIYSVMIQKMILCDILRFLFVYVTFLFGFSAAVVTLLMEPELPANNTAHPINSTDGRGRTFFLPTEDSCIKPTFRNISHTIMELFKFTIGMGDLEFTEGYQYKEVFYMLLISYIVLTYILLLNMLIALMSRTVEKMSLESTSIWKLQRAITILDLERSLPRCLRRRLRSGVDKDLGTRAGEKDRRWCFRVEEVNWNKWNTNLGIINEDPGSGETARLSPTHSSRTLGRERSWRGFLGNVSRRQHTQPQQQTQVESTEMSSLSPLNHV
Assay: two-electrode voltage-clamp, Xenopus laevis oocytes
Format: cell-based

COc1cc(CNC(=O)CCCC/C=C/C(C)C)ccc1O [capsaicin]
EC50: 10.4 µM
